Assay results as given in PMC7892824, “Eltrombopag directly inhibits BAX and prevents cell death” (Nature Communications, 2021).

Experiments:
BAX = molecular target: T1, BAX (Mus musculus, UniProt Q07813); assay: CETSA, […] EO, TM lowered by […] °C; assay type: cell-based; settings: read-out: CETSA, 10 μM EO, TM lowered by 9 °C
T1 construct: endogenous BAX in BAK KO mouse embryonic fibroblasts

BAX R134E = molecular target: T2, BAX R134E (Homo sapiens, UniProt Q07812, R134E); assay: 1H-15N HSQC NMR chemical shift perturbation; liposomal release inhibition; assay type: binding
T2 construct: full-length (1–192)
T2 sequence (Q07812 whole entry R134E): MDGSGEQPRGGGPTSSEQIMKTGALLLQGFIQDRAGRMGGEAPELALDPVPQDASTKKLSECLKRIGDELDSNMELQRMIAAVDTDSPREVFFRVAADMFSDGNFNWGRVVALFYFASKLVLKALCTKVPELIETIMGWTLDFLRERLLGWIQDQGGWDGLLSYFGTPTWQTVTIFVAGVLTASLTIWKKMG

T1 sequence (Q07813 whole entry): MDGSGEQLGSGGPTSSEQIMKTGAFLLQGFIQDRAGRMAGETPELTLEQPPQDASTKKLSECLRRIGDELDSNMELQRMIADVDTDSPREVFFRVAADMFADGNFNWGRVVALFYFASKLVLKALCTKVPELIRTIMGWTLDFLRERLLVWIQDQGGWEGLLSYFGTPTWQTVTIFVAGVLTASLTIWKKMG

Tm decrease at 10 µM (BAX): 9 °C
SMILES: CC1=NN(c2ccc(C)c(C)c2)C(=O)/C1=N\Nc1cccc(-c2cccc(C(=O)O)c2)c1O [compound 2, Eltrombopag]
1H-15N HSQC NMR chemical shift perturbation; liposomal release inhibition (BAX R134E): BAX R134E in the presence of EO exhibited clustering of CSPs to the trigger site, albeit with reduced CSPs
